Assay results taken from ChEMBL document CHEMBL4325912, “Discovery of 2-(1H-imidazo-2-yl)piperazines as a new class of potent and non-cytotoxic inhibitors of Trypanosoma brucei growth in vitro” (Bioorg Med Chem Lett, 2018).
The source made the active and inactive calls. The calls are words filed in the database; no cut-off is given here.

Key:
[1] = Cytotoxicity against human HeLa cells assessed as reduction in cell viability after 72 hrs by celltiter glo assay; assay type: cell-based
Trypanosoma brucei [2] = experiment: Antitrypanosomal activity against Trypanosoma brucei Lister 427 bloodstream forms in presence of 10% FBS after 24 hrs by celltiter glo assay; assay type: functional, organism-based; settings: Lister 427, 24 h
Histone deacetylase 2 [3] = target: T1, Histone deacetylase 2 (Homo sapiens, UniProt Q92769); experiment: Inhibition of human HDAC2
Histone deacetylase 1 [4] = target: T2, Histone deacetylase 1 (Homo sapiens, UniProt Q13547); experiment: Inhibition of human HDAC1 preincubated for 10 mins followed by BML-KI104 substrate addition and measured after 1 hr by spectrophotometric analysis
Histone deacetylase 3 [5] = target: T3, Histone deacetylase 3 (Homo sapiens, UniProt O15379); experiment: Inhibition of human HDAC3
[6] = target: Class 1 histone deacetylase (Homo sapiens, UniProt Q13547+O15379+Q92769+Q9BY41); experiment: Inhibition of HDAC class 1 in human HeLa cells after 4 hrs by spectrophotometric analysis; assay type: cell-based
[7] = Selectivity index, ratio of EC50 for Trypanosoma cruzi to EC50 for antitrypanosomal activity against Trypanosoma brucei Lister 427 bloodstream forms; assay type: functional
[8] = Half life in mouse hepatocytes; assay type: ADME, cell-based, Hepatocyte
Trypanosoma cruzi = experiment: Antiparasitic activity against Trypanosoma cruzi; assay type: functional, organism-based
Plasmodium falciparum = experiment: Antimalarial activity against Plasmodium falciparum 3D7 infected in human erythrocytes after 72 hrs by spectrophotometric analysis; assay type: functional, organism-based; settings: 3D7, 72 h
[9] = Selectivity index, ratio of EC50 for Plasmodium falciparum 3D7 infected in human erythrocytes to EC50 for antitrypanosomal activity against Trypanosoma brucei Lister 427 bloodstream forms; assay type: functional
[10] = Cytotoxicity against HUVEC; assay type: cell-based; settings: human
[11] = Half life in human hepatocytes; assay type: ADME, cell-based, Hepatocyte
[12] = target: Histone deacetylase 4 (Homo sapiens) (UniProt P56524); experiment: Inhibition of human HDAC4 up to 5 uM
[13] = target: T4, Protein deacetylase HDAC6 (Homo sapiens) (UniProt Q9UBN7); experiment: Inhibition of human HDAC6 up to 5 uM
T4 sequence (whole entry): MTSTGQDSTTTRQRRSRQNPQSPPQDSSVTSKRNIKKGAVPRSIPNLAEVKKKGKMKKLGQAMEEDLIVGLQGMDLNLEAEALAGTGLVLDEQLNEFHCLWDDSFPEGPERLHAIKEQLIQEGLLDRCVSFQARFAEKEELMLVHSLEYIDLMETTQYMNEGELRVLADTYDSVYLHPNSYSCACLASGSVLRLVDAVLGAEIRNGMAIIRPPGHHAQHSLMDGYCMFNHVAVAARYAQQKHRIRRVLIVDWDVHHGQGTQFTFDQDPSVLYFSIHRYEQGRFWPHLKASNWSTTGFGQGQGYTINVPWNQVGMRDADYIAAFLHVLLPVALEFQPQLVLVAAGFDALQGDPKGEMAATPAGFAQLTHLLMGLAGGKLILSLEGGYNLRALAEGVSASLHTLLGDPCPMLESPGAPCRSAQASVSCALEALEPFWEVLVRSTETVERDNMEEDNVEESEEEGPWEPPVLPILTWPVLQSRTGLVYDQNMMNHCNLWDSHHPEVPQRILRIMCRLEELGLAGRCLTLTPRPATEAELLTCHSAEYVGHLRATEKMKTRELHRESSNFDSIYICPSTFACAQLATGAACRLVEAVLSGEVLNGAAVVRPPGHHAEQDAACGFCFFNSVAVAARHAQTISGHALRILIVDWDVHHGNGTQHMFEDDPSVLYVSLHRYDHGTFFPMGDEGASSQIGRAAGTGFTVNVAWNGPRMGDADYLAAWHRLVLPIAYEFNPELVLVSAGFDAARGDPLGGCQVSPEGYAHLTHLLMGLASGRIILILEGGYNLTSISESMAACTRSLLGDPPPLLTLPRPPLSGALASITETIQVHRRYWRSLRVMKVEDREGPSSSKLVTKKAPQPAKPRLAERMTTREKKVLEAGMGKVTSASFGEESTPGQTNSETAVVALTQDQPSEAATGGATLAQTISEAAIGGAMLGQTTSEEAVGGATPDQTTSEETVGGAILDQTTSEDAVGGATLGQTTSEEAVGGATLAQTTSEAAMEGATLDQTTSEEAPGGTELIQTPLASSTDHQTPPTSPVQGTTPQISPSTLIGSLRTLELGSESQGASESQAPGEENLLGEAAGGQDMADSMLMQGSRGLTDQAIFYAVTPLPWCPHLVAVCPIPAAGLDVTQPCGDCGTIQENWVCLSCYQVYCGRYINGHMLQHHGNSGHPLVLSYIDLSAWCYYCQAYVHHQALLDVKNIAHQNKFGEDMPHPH

Histone deacetylase 1 [14] = target: T2, Histone deacetylase 1; experiment: Inhibition of human HDAC1 up to 5 uM preincubated for 10 mins followed by BML-KI104 substrate addition and measured after 1 hr by spectrophotometric analysis
Histone deacetylase 3 [15] = target: T3, Histone deacetylase 3; experiment: Inhibition of human HDAC3 up to 5 uM
[16] = target: Histone deacetylase 5 (Homo sapiens) (UniProt Q9UQL6); experiment: Inhibition of human HDAC5 up to 5 uM
[17] = target: T5, Histone deacetylase 8 (Homo sapiens) (UniProt Q9BY41); experiment: Inhibition of human HDAC8 up to 5 uM
T5 sequence (whole entry): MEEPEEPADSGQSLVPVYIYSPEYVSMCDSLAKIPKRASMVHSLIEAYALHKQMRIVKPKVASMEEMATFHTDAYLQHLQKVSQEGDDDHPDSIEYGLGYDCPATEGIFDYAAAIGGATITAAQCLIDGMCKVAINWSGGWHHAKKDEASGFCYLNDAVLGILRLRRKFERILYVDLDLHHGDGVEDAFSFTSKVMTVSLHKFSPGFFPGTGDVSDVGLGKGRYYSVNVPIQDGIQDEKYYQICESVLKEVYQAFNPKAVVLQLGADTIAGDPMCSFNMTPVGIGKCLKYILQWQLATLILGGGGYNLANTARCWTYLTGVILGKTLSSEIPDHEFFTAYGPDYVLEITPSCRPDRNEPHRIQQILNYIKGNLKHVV

[18] = target: T6, Histone deacetylase 7 (Homo sapiens) (UniProt Q8WUI4); experiment: Inhibition of human HDAC7 up to 5 uM
T6 sequence (whole entry): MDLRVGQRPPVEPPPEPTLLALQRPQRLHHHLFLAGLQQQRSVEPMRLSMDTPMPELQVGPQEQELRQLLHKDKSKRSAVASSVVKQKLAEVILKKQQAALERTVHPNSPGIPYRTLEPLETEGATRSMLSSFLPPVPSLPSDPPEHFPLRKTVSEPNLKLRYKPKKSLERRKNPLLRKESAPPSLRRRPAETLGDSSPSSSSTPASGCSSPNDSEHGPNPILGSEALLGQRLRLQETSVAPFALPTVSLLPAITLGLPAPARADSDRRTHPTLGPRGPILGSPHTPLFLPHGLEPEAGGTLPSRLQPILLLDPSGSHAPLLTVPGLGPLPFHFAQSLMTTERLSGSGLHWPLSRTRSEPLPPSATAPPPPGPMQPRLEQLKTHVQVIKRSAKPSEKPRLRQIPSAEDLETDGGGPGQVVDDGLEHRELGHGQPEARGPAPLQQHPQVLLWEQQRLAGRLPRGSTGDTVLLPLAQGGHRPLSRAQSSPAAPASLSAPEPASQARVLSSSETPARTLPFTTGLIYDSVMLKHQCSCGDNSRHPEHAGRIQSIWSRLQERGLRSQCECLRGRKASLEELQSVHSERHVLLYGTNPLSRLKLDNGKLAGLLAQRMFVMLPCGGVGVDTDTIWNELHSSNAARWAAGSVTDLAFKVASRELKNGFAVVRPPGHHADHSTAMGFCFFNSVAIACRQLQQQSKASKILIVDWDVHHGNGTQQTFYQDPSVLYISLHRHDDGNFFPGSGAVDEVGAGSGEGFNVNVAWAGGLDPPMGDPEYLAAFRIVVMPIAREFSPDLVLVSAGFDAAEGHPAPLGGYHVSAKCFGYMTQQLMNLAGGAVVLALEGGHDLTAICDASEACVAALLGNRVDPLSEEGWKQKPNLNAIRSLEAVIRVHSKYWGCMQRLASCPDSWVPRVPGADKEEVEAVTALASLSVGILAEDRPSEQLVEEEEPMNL

Histone deacetylase 2 [19] = target: T1, Histone deacetylase 2; experiment: Inhibition of human HDAC2 up to 5 uM
[20] = target: Histone deacetylase 9 (Homo sapiens) (UniProt Q9UKV0); experiment: Inhibition of human HDAC9 up to 5 uM
Trypanosoma brucei [21] = experiment: Inhibition of Trypanosoma brucei Aurora 1 kinase
Trypanosoma brucei [22] = experiment: Inhibition of Trypanosoma brucei adenosine kinase
Trypanosoma brucei [23] = experiment: Inhibition of Trypanosoma brucei trypanothione reductase
Trypanosoma brucei [24] = experiment: Inhibition of Trypanosoma brucei GSK3

T1 sequence (Q92769 whole entry): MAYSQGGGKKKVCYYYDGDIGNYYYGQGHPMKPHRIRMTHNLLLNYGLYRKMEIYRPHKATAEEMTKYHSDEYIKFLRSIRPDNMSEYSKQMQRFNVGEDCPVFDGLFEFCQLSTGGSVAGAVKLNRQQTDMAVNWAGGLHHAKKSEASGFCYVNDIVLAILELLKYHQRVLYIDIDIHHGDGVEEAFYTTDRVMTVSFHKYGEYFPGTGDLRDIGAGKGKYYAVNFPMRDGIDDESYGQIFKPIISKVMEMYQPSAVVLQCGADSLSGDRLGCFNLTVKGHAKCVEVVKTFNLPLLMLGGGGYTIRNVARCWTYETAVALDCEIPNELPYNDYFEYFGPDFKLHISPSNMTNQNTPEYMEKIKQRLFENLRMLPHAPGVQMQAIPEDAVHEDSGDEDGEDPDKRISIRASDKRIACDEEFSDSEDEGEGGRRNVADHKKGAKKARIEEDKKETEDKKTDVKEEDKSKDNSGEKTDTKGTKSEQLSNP
T2 sequence (Q13547 whole entry): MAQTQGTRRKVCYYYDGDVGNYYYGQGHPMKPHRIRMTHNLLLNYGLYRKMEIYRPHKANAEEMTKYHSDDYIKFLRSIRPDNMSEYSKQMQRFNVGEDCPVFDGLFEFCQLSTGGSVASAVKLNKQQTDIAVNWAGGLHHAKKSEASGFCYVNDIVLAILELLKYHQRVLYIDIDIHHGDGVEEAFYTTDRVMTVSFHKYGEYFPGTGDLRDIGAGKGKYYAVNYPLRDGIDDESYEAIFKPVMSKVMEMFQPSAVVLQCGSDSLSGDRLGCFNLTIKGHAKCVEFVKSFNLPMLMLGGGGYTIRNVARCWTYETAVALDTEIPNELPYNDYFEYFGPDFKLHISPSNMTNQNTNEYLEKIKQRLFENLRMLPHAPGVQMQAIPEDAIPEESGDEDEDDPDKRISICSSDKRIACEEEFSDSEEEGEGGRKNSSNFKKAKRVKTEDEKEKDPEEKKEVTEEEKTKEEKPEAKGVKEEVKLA
T3 sequence (O15379 whole entry): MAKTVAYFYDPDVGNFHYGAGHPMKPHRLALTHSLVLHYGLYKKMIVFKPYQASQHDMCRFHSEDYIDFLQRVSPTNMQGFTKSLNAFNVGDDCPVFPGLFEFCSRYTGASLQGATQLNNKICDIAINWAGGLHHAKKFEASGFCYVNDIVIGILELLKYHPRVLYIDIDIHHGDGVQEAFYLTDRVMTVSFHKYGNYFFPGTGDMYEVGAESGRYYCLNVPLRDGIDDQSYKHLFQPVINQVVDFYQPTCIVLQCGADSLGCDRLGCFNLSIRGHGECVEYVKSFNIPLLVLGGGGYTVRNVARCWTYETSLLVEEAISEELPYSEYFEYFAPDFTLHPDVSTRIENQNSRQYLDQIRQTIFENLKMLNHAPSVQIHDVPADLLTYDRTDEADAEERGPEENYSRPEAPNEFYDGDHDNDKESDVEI
Sequence of Histone deacetylase 5 (Homo sapiens) (Q9UQL6 whole entry): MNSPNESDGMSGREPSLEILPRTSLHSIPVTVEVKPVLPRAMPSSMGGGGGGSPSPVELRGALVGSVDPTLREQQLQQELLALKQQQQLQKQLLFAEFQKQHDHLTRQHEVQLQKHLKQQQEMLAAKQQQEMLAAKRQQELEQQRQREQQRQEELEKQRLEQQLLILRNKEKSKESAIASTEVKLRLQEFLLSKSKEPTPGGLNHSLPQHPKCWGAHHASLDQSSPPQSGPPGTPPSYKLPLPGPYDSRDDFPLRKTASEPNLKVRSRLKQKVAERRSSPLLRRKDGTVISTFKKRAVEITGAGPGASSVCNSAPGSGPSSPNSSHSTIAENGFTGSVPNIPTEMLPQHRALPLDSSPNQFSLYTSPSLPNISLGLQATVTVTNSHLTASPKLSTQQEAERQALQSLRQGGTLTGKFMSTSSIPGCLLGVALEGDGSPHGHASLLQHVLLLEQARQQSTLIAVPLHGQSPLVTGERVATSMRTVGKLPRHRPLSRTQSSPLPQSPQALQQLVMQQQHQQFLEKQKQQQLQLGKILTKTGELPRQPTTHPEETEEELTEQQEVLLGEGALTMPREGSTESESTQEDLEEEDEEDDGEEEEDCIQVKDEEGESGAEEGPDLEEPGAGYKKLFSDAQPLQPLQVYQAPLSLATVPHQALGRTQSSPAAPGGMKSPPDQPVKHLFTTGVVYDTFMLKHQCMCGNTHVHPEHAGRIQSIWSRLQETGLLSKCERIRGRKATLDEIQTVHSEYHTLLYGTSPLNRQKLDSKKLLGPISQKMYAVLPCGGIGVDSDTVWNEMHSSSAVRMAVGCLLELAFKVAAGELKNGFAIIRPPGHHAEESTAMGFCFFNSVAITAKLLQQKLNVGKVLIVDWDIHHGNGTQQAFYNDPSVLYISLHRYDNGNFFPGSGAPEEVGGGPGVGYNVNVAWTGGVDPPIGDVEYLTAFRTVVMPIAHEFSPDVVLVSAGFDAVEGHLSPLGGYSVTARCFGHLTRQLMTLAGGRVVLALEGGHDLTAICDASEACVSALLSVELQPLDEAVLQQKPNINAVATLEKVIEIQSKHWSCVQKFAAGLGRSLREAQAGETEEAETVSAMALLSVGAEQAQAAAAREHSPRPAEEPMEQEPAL
Sequence of Histone deacetylase 4 (Homo sapiens) (P56524 whole entry): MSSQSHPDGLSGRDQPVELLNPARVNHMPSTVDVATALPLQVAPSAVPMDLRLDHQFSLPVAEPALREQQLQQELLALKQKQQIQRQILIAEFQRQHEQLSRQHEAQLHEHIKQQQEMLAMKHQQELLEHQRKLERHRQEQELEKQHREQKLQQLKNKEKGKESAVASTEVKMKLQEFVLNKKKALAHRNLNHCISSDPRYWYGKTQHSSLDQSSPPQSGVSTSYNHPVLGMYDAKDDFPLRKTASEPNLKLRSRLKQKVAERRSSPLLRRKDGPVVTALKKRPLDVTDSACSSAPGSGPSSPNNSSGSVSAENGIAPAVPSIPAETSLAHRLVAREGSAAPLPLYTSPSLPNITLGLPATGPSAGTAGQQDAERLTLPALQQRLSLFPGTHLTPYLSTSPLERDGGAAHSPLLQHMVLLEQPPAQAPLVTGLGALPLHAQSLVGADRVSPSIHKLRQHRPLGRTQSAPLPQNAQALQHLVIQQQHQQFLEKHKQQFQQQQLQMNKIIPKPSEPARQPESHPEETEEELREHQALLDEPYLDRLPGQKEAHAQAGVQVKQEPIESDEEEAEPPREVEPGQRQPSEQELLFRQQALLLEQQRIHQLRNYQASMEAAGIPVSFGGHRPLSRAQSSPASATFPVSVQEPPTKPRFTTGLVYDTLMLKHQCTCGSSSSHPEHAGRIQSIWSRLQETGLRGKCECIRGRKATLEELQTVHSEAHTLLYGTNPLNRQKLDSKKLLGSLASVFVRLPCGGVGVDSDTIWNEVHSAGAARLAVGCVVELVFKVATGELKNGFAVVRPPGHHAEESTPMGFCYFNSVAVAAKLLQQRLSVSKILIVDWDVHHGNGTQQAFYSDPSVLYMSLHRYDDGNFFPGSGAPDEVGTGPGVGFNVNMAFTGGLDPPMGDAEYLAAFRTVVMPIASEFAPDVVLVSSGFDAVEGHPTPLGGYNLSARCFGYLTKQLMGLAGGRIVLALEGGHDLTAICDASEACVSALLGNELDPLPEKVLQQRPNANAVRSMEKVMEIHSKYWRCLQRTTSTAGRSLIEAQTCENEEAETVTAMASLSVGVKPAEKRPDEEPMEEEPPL
Sequence of Histone deacetylase 9 (Homo sapiens) (Q9UKV0 whole entry): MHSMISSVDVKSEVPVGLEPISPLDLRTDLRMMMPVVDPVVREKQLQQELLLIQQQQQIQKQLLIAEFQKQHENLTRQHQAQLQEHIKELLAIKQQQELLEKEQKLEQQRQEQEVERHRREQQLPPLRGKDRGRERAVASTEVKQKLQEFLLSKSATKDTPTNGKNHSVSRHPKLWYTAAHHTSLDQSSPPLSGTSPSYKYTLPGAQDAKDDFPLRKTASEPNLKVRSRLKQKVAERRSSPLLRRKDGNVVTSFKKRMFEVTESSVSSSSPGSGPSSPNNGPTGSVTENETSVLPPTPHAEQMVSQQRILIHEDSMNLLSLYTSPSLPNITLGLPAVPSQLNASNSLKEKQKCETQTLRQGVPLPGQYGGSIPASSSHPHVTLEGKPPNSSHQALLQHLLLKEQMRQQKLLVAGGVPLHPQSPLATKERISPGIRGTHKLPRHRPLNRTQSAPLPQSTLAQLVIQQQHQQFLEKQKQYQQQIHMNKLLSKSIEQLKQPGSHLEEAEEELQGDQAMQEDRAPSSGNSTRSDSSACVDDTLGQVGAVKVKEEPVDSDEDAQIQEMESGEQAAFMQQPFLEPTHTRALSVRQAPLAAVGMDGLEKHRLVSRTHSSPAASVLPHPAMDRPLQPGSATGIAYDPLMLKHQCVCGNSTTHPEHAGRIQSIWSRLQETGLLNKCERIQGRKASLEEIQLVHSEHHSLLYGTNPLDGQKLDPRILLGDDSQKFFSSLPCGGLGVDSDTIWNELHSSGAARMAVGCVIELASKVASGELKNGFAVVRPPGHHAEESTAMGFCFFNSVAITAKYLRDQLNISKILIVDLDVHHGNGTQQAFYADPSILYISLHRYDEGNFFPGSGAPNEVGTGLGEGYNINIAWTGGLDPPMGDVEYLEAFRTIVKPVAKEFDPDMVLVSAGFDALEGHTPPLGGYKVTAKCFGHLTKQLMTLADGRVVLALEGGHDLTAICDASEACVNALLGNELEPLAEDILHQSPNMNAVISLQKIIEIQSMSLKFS

SMILES | CC50 at 72 h [1] [µM] | EC50 (Trypanosoma brucei [2]) [µM] | also measured
CNC(=O)CCCN1CCN(C(=O)Cc2c(C)[nH]c3ccc(OC)cc23)C(c2ncc(-c3ccc4ccccc4c3)[nH]2)C1 (configuration not stated) | > 5 | 0.148 | 
CCC(=O)CCC(=O)N1CCN(C(=O)Cc2c(C)[nH]c3ccc(OC)cc23)C(c2ncc(-c3ccc4ccccc4c3)[nH]2)C1 (configuration not stated) | > 25 | 0.492 | 
CCC(=O)CCCN1CCN(Cc2ccccc2)C(c2ncc(-c3ccc4ccccc4c3)[nH]2)C1 (configuration not stated) | 14.7 | 1.72 | 
CCC(=O)CCCN1CCN(C(=O)Cc2ccccc2)C(c2ncc(-c3ccc4ccccc4c3)[nH]2)C1 (configuration not stated) | > 25 | 1.8 | 
COc1ccc2[nH]c(C)c(CC(=O)N3CCN(CC4CC4)CC3c3ncc(-c4ccc5ccccc5c4)[nH]3)c2c1 (configuration not stated) | > 25 | 0.016 | 
COc1ccc2[nH]c(C)c(CC(=O)N3CCN(CCCC(N)=O)CC3c3ncc(-c4ccc5ccccc5c4)[nH]3)c2c1 (configuration not stated) | > 25 | 0.207 | 
CCC(=O)CCCN1CCN(C(=O)Nc2ccccc2)C(c2ncc(-c3ccc4ccccc4c3)[nH]2)C1 (configuration not stated) | > 25 | 1.43 | 
CCC(=O)CCCN1CCN(C(=O)c2ccccc2)C(c2ncc(-c3ccc4ccccc4c3)[nH]2)C1 (configuration not stated) | > 32 | 1.56 | 
CCC(=O)CCCN1CCN(C(=O)Cc2c[nH]c3ccccc23)C(c2ncc(-c3ccc4ccccc4c3)[nH]2)C1 (configuration not stated) | > 25 | 0.489 | IC50 (Histone deacetylase 2 [3]): > 25 µM; IC50 (Histone deacetylase 1 [4]): > 25 µM; IC50 (Histone deacetylase 3 [5]): > 25 µM; IC50 [6]: > 25 µM
COc1ccc2[nH]c(C)c(CC(=O)N3CCN(CC4CCOC4)CC3c3ncc(-c4ccc5ccccc5c4)[nH]3)c2c1 (mixture of isomers) | > 25 | 0.005 | Ratio EC50 [7]: 1000; half-life [8]: 0.4 h; EC50 (Trypanosoma cruzi): 8.12 µM; EC50 (Plasmodium falciparum): 3.62 µM; Ratio EC50 [9]: 1000; CC50 [10]: 18.7 µM; half-life [11]: 2.4 h
COc1ccc2[nH]c(C)c(CC(=O)N3CCN(CCCC(C)O)CC3c3ncc(-c4ccc5ccccc5c4)[nH]3)c2c1 (configuration not stated) | 13.1 | 0.013 | 
CCC(=O)CCCN1CCN(C(=O)Oc2ccccc2)C(c2ncc(-c3ccc4ccccc4c3)[nH]2)C1 (configuration not stated) | 16.6 | 1.22 | 
CCC(=O)CCCN1CCN(C(=O)Cc2c[nH]c3ncccc23)C(c2ncc(-c3ccc4ccccc4c3)[nH]2)C1 (configuration not stated) | > 25 | 0.545 | 
COC(=O)CCCN1CCN(C(=O)Cc2c(C)[nH]c3ccc(OC)cc23)C(c2ncc(-c3ccc4ccccc4c3)[nH]2)C1 (configuration not stated) | 28.8 | 0.154 | 
CCC(=O)CCCN1CCN(C(=O)Cc2c(C)[nH]c3ccc(OC)cc23)C(c2ncc(-c3ccc4ccccc4c3)[nH]2)C1 (configuration not stated) | 12.3 | 0.01 | inhibition [12]: inactive; inhibition [13]: inactive; inhibition (Histone deacetylase 1 [14]): inactive; inhibition (Histone deacetylase 3 [15]): inactive; inhibition [16]: inactive; inhibition [17]: inactive; inhibition [18]: inactive; inhibition (Histone deacetylase 2 [19]): inactive; inhibition [20]: inactive
CCC(=O)CCCN1CCN(C(=O)Cc2c[nH]c3ccccc23)[C@H](c2ncc(-c3ccc4ccccc4c3)[nH]2)C1 | > 25 | 0.423 | 
CCC(=O)CCCN1CCN(C(=O)Cc2c(C)[nH]c3ccc(OC)cc23)C(c2nnc(-c3ccc4ccccc4c3)o2)C1 (configuration not stated) | > 25 | 0.304 | 
COc1ccc2[nH]c(C)c(CC(=O)N3CCN(C)CC3c3ncc(-c4ccc5ccccc5c4)[nH]3)c2c1 (configuration not stated) | > 25 | 0.038 | inhibition (Trypanosoma brucei [21]): inactive; inhibition (Trypanosoma brucei [22]): inactive; inhibition (Trypanosoma brucei [23]): inactive; inhibition (Trypanosoma brucei [24]): inactive
CCC(=O)CCCN1CCN(C(=O)Cc2c[nH]c3ccccc23)[C@@H](c2ncc(-c3ccc4ccccc4c3)[nH]2)C1 | > 32 | 4.36 | 
CCC(=O)CCCN1CCN(S(=O)(=O)c2ccccc2)C(c2ncc(-c3ccc4ccccc4c3)[nH]2)C1 (configuration not stated) | > 25 | 4.12 | 
CCCCCCN1CCN(C(=O)Cc2c(C)[nH]c3ccc(OC)cc23)C(c2ncc(-c3ccc4ccccc4c3)[nH]2)C1 (configuration not stated) | > 25 | 0.079 | 
CCC(=O)CCCN1CCN(C(=O)Cc2c(C)[nH]c3ccc(OC)cc23)C(c2ncc(-c3ccc4ccccc4c3)o2)C1 (configuration not stated) | 20.6 | 1.26 | 
COc1ccc2[nH]c(C)c(CC(=O)N3CCN(CCCC(=O)O)CC3c3ncc(-c4ccc5ccccc5c4)[nH]3)c2c1 (configuration not stated) | > 50 | 1.1 | 
CCC(=O)CCCN1CCN(C(C)=O)C(c2ncc(-c3ccc4ccccc4c3)[nH]2)C1 (configuration not stated) | > 32 | > 25 | 
